Reference: ChEMBL document CHEMBL1201862, “PubChem BioAssay data set” (2004)
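48-hour exposure; five concentrations; linearly interpolated endpoints. Abbreviation: GI50, concentration required for 50% inhibition of growth.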 Calls of active or inactive are those of the source. Cut-off read from the data, not from the text of the source: active = GI50 up to about 1.1 µM and inactive = higher.

Assays:
Assay in all cases: DTP human tumour cell line panel, 48 h
ACHN = tested on: ACHN
HCT-116 = tested on: HCT-116
HCT-15 = tested on: HCT-15
HOP-62 = tested on: HOP-62
LOX IMVI = tested on: LOX IMVI
M14 = tested on: M14
OVCAR-3 = tested on: OVCAR-3
OVCAR-4 = tested on: OVCAR-4
OVCAR-5 = tested on: OVCAR-5
SF-268 = tested on: SF-268
SK-MEL-28 = tested on: SK-MEL-28
SK-MEL-2 = tested on: SK-MEL-2
SK-MEL-5 = tested on: SK-MEL-5
SK-OV-3 = tested on: SK-OV-3
SN12C = tested on: SN12C
SNB-75 = tested on: SNB-75
NCI-H226 = tested on: NCI-H226

SMILES | GI50 (ACHN) | GI50 (HCT-116) | GI50 (HCT-15) [µM] | GI50 (HOP-62) | GI50 (LOX IMVI) | GI50 (M14) | GI50 (OVCAR-3) | GI50 (OVCAR-4) | GI50 (OVCAR-5) | GI50 (SF-268) | GI50 (SK-MEL-28) | GI50 (SK-MEL-2) | GI50 (SK-MEL-5) | GI50 (SK-OV-3) | GI50 (SN12C) | GI50 (SNB-75) | GI50 (NCI-H226)
O=C1NC2(CCCCCC2)C2CCCCCCC12O (stereo unspecified) | > 100 µM (inactive) | > 100 µM (inactive) | > 100 | > 100 µM (inactive) | > 100 µM (inactive) | > 100 µM (inactive) | > 100 µM (inactive) | > 100 µM (inactive) | > 100 µM (inactive) | > 100 µM (inactive) | > 100 µM (inactive) | > 100 µM (inactive) | > 100 µM (inactive) | > 100 µM (inactive) | > 100 µM (inactive) | > 100 µM (inactive) | 
O=c1c2cccc3cccc(c4oc5c6cccc7cccc(c(=O)c5c14)c76)c32 | 11.6 µM (inactive) | 2.25 µM (inactive) | 11.4 | > 100 µM (inactive) | 12.2 µM (inactive) | 12.4 µM (inactive) | 12 µM (inactive) |  | 27.2 µM (inactive) | 13 µM (inactive) | 13.3 µM (inactive) | 15.7 µM (inactive) | 15.2 µM (inactive) | 28.9 µM (inactive) | 13.8 µM (inactive) | 14 µM (inactive) | 17 µM (inactive)
Cc1ccc(-c2cc(=O)c3cc(C)c(C)c(C(=O)O)c3o2)cc1N | > 100 µM (inactive) | > 100 µM (inactive) | > 100 |  | > 100 µM (inactive) | > 100 µM (inactive) | > 100 µM (inactive) | > 100 µM (inactive) | > 100 µM (inactive) | > 100 µM (inactive) | > 100 µM (inactive) | > 100 µM (inactive) | > 100 µM (inactive) | > 100 µM (inactive) | > 100 µM (inactive) | > 100 µM (inactive) | > 100 µM (inactive)
CCCCCCCCC(O)C#CC(N)=O (stereo unspecified) | 12.4 µM (inactive) | 3.67 µM (inactive) | 13.2 |  | 11.7 µM (inactive) | 12.3 µM (inactive) | 7.35 µM (inactive) | 2.51 µM (inactive) | 26.7 µM (inactive) |  | 15.5 µM (inactive) | 13.3 µM (inactive) | 12 µM (inactive) |  | 7.59 µM (inactive) | 3.37 µM (inactive) | 10.8 µM (inactive)
CCN(CC)CCN1CCc2c([nH]c3ccccc23)C1c1cccnc1 (stereo unspecified) | > 100 µM (inactive) | > 100 µM (inactive) | > 100 | > 100 µM (inactive) | > 100 µM (inactive) | > 100 µM (inactive) | > 100 µM (inactive) | > 100 µM (inactive) | > 100 µM (inactive) | > 100 µM (inactive) | > 100 µM (inactive) |  | > 100 µM (inactive) | > 100 µM (inactive) | > 100 µM (inactive) | 91.4 µM (inactive) | 
CC(=O)C1C(c2ccccc2)C2(C)OC(=O)C(C#N)C12C (stereo unspecified) | > 100 µM (inactive) | > 100 µM (inactive) | > 100 |  | > 100 µM (inactive) | > 100 µM (inactive) | > 100 µM (inactive) | > 100 µM (inactive) | > 100 µM (inactive) | > 100 µM (inactive) | > 100 µM (inactive) | > 100 µM (inactive) | > 100 µM (inactive) | > 100 µM (inactive) | > 100 µM (inactive) | > 100 µM (inactive) | > 100 µM (inactive)
CCOC(=O)C(C(=O)OCC)=C1C=C(c2ccccc2)c2ccccc21 | 41 µM (inactive) | 48.9 µM (inactive) | 25.8 | 13.3 µM (inactive) | 28.8 µM (inactive) | 35.9 µM (inactive) | > 100 µM (inactive) | 38.3 µM (inactive) | 38.6 µM (inactive) | > 100 µM (inactive) | > 100 µM (inactive) | > 100 µM (inactive) | 31.1 µM (inactive) | > 100 µM (inactive) | > 100 µM (inactive) | 45.7 µM (inactive) | 78.9 µM (inactive)
CC(=O)SC(SC(C)=O)SC(C)=O | > 100 µM (inactive) | > 100 µM (inactive) | 53.2 | > 100 µM (inactive) | 58.5 µM (inactive) | > 100 µM (inactive) | 91 µM (inactive) | > 100 µM (inactive) | > 100 µM (inactive) | > 100 µM (inactive) | > 100 µM (inactive) | > 100 µM (inactive) | > 100 µM (inactive) | > 100 µM (inactive) | > 100 µM (inactive) | 60.3 µM (inactive) | > 100 µM (inactive)
C[C@]12CCC(=O)C(O)=C1CC[C@@H]1C2CC[C@]2(C)Nc3c(cnn3-c3ccccc3)CC12 (stereo partly specified) | > 100 µM (inactive) | 28.2 µM (inactive) | 49.9 | > 100 µM (inactive) |  | > 100 µM (inactive) | 54.8 µM (inactive) | 96.2 µM (inactive) | > 100 µM (inactive) |  | > 100 µM (inactive) | > 100 µM (inactive) | 38.8 µM (inactive) | > 100 µM (inactive) |  | > 100 µM (inactive) | 64.3 µM (inactive)
